Assay [1] addresses T1, Tyrosine-protein phosphatase non-receptor type 22 (Homo sapiens) (UniProt Q9Y2R2).
T1 sequence (whole entry): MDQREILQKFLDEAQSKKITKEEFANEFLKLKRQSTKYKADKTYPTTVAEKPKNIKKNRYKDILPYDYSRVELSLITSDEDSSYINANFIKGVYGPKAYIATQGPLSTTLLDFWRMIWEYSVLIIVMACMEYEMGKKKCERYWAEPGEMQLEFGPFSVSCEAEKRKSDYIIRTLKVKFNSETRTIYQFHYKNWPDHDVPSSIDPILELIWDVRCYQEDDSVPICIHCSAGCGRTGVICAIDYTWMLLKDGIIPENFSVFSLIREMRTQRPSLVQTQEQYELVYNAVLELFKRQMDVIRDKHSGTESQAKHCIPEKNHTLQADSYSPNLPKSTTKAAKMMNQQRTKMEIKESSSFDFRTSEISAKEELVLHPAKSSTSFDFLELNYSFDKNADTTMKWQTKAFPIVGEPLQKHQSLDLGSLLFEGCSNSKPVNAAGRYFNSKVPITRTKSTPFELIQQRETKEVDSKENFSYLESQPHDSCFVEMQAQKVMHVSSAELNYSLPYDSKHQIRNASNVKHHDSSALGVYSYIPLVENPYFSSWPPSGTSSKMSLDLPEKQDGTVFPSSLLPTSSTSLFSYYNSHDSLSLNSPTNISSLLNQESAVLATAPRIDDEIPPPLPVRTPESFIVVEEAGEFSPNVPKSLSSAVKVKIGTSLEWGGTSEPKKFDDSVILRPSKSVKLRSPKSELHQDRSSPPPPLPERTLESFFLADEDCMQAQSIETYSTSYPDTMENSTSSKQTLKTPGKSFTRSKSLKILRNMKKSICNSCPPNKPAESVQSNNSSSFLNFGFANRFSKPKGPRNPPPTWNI
Nature of the assay: Oxidative inactivation of lymphoid tyrosine phosphatase by DiFMUP assay in presence of L-cysteine.

The target in assay [2] is T2, Tyrosine-protein phosphatase non-receptor type 22 (Homo sapiens, UniProt Q9Y2R2).
T2 sequence (Q9Y2R2 whole entry): T1 sequence (whole entry)
Nature of the assay: (§1) Oxidative inactivation of lymphoid tyrosine phosphatase by DiFMUP assay.

For assay [3], the target named is T1, Tyrosine-protein phosphatase non-receptor type 22 (Homo sapiens). Described as §1.
The target is the same in assay [4]. Nature of the assay: Oxidative inactivation of lymphoid tyrosine phosphatase assessed as NO release by ESI-MS spectrum.
Assay [5] shares this target. Nature of the assay: Oxidative competitive inactivation of lymphoid tyrosine phosphatase by Lineweaver-Burk plot.
The target is the same in assay [6]. Nature of the assay: Oxidative inactivation of lymphoid tyrosine phosphatase at 1 to 100 uM by DiFMUP assay. The settings on record: TDE = time-dependent effect.

The structures appear in SMILES notation. The source made the active and inactive calls. The calls are words filed in the database; no cut-off is given here. Starred links: 1 amine or outer side, 2 acyl side, 3 side chain; linkers in the order of their positions; H or OH if unused. Non-standard residues stand in square brackets, D forms with d. Residues, ends and D or L forms follow the SMILES beside them. X1 = O=NSCC[C@H](N[*:1])C(=O)[*:2]

As for `CC[C@H](C)[C@H](NC(=O)[C@H](CC(C)C)NC(=O)[C@H](CCCNC(=N)N)NC(=O)[C@H](C)NC(C)=O)C(=O)N[C@@H](CCC(=O)O)C(=O)N[C@@H](CC(=O)O)C(=O)N[C@@H](CC(N)=O)C(=O)N[C@@H](CCC(=O)O)C(=O)N[C@@H](CCSN=O)C(=O)N[C@H](C(=O)N[C@@H](C)C(=O)N[C@@H](CCCNC(=N)N)C(=O)N[C@@H](CCC(=O)O)C(=O)NCC(N)=O)[C@@H](C)O` (Ac-ARLIEDNE[X1]TAREG-NH2), the outcome in assay [1] was inactive. The Ki in assay [2] stood at 7 µM. Also, the Activity entry in assay [3] was “Dose-dependent effect”; in assay [6], “tde”. This compound also came in with a Kinact in assay [3] of 0.0472 min⁻¹. For the same compound, the result in assay [4] and in assay [5] was Active.

Source of the values: ChEMBL document CHEMBL1641567, “Oxidative inactivation of the lymphoid tyrosine phosphatase mediated by both general and active site directed NO donors” (Bioorg Med Chem Lett, 2011).
